For three compounds, solubility results are on record in ChEMBL document CHEMBL3400123, “Discovery of 1,3-dihydro-2,1,3-benzothiadiazole 2,2-dioxide analogs as new RORC modulators” (Bioorg Med Chem Lett, 2015).

One may read the solubility as the dissolved amount per volume that the medium holds. Low values mean a poorly soluble substance, high ones a readily soluble substance.

Converted amounts (≈) assume the structure as drawn.

The nature of this series: Solubility in pH 6.8 buffer by high throughput solubility assay. The format is physicochemical.
On to `O=C(CCCN1c2ccccc2N(Cc2ccc(C(O)(C(F)(F)F)C(F)(F)F)cc2)S1(=O)=O)N1CCCC1`, for which the solubility is 0.45 µg/mL (≈ 0.796 µM).
The same measure for `CCC(CC)c1ccc(CN2c3ccccc3N(CCCC(=O)N3CCCC3)S2(=O)=O)cc1`: 0.6 µg/mL (≈ 1.28 µM); for `O=C(CCCN1c2ccccc2N(Cc2ccc(C(O)C(F)(F)F)cc2)S1(=O)=O)N1CCCC1` (stereo not drawn): 5.7 µg/mL (≈ 11.5 µM).
